Assay results from PubChem BioAssay AID687023 (Broad Institute, 2013).
Values joined by “and” are separate entries in the source; they are usually repeats but may differ in a detail not shown here. Equal values may be shown once. Active and inactive are the calls of the source. No rule for the calls is given here.

How the values were obtained:
[1] = inhibition of Env-driven cell fusion – HIV entry, plate reader, dry powder, dose response (AID 687023); settings: Env-mediated cell-cell fusion, plate reader
[2] = tested on: Env-mediated cell-cell fusion, plate reader; assay: as above

SMILES	AC50 [2]	activity change, negative = inhibition ([1]; at 35 µM (top of the series))	also measured
CCOc1ccc(OCC)c(S(=O)(=O)NCc2ccncc2)c1	–	–	activity change, negative = inhibition ([1]; at 3.8 µM (top of the series)): 30.3% (inactive)
Nc1nonc1C(=O)NCCNCc1c(OCc2ccccc2F)ccc2ccccc12	9.38 µM and 3.61 µM	–	–
CCCOc1ccc(S(=O)(=O)NCc2ccncc2)c2ccccc12	0.945 µM and 2.88 µM	–	–
Cc1noc(C)c1S(=O)(=O)Nc1cccc2c1O[C@@H](CN(C)Cc1ccc(C(F)(F)F)cc1)[C@H](C)CN([C@H](C)CO)C2=O	–	15.3% (inactive)	–
Cc1ccc(C)n1-c1ccc(C(=O)O)c(O)c1	–	0.014% (inactive)	–
COc1ccc(-c2nn(C)c(=O)c3ccccc23)cc1NC(=O)Cn1nc(C)c2ccccc2c1=O	4.03 µM and 23.5 µM	–	–
CC(C)(C)c1ccc(-c2noc(CCC(=O)NCC3CCCO3)n2)cc1 (stereo unspecified)	0.0954 µM and 0.484 µM	–	–
Cc1ccc(S(=O)(=O)Nc2cccc3c2O[C@@H](CN(C)Cc2ccc(Cl)c(Cl)c2)[C@@H](C)CN([C@H](C)CO)C3=O)cc1	–	-87.2% (inactive)	–
N=C1Sc2ccccc2C2=NCCCN12	–	2.5% (inactive)	–
Cc1ccc(-c2nnc3ccc4c(C(F)(F)F)cc(C(F)(F)F)nc4n23)cc1	–	–	activity change, negative = inhibition ([1]; at 1.2 µM (top of the series)): 38.4% (inactive)
Oc1ccc(CNc2ccccc2F)c2cccnc12	–	–	activity change, negative = inhibition ([1]; at 1.2 µM (top of the series)): 33.1% (inactive)
CCOc1ccc(S(=O)(=O)NCc2ccccn2)cc1	–	34.6% (inactive)	–
CC1(C)CC(NC(=O)C(=O)Nc2ccc(Cl)cc2)CC(C)(C)N1	> 70 µM (inactive) and 27.4 µM	–	–
O=C(CCc1ccc(S(=O)(=O)N2CCOCC2)cc1)Nc1nc(COc2ccccc2)cs1	3.51 µM and 8.07 µM	–	–
Cc1noc(C)c1S(=O)(=O)Nc1cccc2c1O[C@H](CN(C)Cc1ccc(C(F)(F)F)cc1)[C@@H](C)CN([C@H](C)CO)C2=O	–	–	activity change, negative = inhibition ([1]; at 1.2 µM (top of the series)): 53.5% (inactive)
COC(=O)COc1ccc(S(=O)(=O)NCc2ccncc2)cc1	–	–	activity change, negative = inhibition ([1]; at 3.8 µM (top of the series)): 62.5% (inactive)
CCOc1ccc(S(=O)(=O)NC(C)c2ccncc2)cc1 (stereo unspecified)	1.16 µM and 2.43 µM	–	–
COc1ccc(CC(=O)Nc2cccc(S(=O)(=O)N3CCCCCC3)c2)cc1OC	3.95 µM and 1.88 µM	–	–
CCCn1nc(C(=O)Nc2ccc3nc(N4CCOCC4)sc3c2)ccc1=O	4.24 µM and 9.79 µM	–	–
COc1ccccc1CCNCc1ccc(OC)c(OCc2ccccc2)c1	–	-63.1% (inactive)	–
Cc1noc(C)c1S(=O)(=O)Nc1cccc2c1O[C@@H](CN(C)Cc1ccc(C(F)(F)F)cc1)[C@H](C)CN([C@@H](C)CO)C2=O	–	56% (inactive)	–
